From patent publication US11078202B2, “β-lactamase inhibitor and use thereof” (priority 2018, dated 2021)
Structures can show the parent of a compound that is named as a salt.

Legend:
Type in all cases: cell-based
[1] = test system: Klebsiella pneumoniae XNWB 0001; experiment: MIC assay of test compounds combined with ceftazidime (8 μg/mL); settings: ceftazidime 8 μg/mL fixed
How it was run: (§1)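 MIC determined by CLSI-guided broth microdilution in CAMHB after 16-20 h at 35±2 °C, with growth and sterile control wells. Test compound series co-dosed with fixed-level ceftazidime or imipenem; inoculum from TSA-grown colonies, adjusted to OD600 0.1-0.15 then diluted 300-fold.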

[2] = test system: Acinetobacter baumannii XNWB 0007; experiment: as above; settings: ceftazidime 8 μg/mL fixed
How it was run: as §1

[3] = test system: Klebsiella pneumoniae XNWB 0004; experiment: as above; settings: ceftazidime 8 μg/mL fixed
How it was run: as §1

[4] = test system: Klebsiella pneumoniae XNWB 0002; experiment: as above; settings: ceftazidime 8 μg/mL fixed
How it was run: as §1

[5] = test system: Klebsiella pneumoniae XNWB 0006; experiment: as above; settings: ceftazidime 8 μg/mL fixed
How it was run: as §1

[6] = test system: Klebsiella pneumoniae XNWB 0005; experiment: as above; settings: ceftazidime 8 μg/mL fixed
How it was run: as §1

[7] = test system: Pseudomonas aeruginosa XNWB 0008; experiment: as above; settings: ceftazidime 8 μg/mL fixed
How it was run: as §1

[8] = test system: Klebsiella pneumoniae XNWB 0003; experiment: as above; settings: ceftazidime 8 μg/mL fixed
How it was run: as §1

[9] = test system: Klebsiella pneumoniae XNWB 0001; experiment: MIC assay of test compounds combined with imipenem (4 μg/mL); settings: imipenem 4 μg/mL fixed
How it was run: as §1

[10] = test system: Acinetobacter baumannii XNWB 0007; experiment: as above; settings: imipenem 4 μg/mL fixed
How it was run: as §1

[11] = test system: Klebsiella pneumoniae XNWB 0004; experiment: as above; settings: imipenem 4 μg/mL fixed
How it was run: as §1

[12] = test system: Klebsiella pneumoniae XNWB 0002; experiment: as above; settings: imipenem 4 μg/mL fixed
How it was run: as §1

[13] = test system: Klebsiella pneumoniae XNWB 0006; experiment: as above; settings: imipenem 4 μg/mL fixed
How it was run: as §1

[14] = test system: Klebsiella pneumoniae XNWB 0005; experiment: as above; settings: imipenem 4 μg/mL fixed
How it was run: as §1

[15] = test system: Pseudomonas aeruginosa XNWB 0008; experiment: as above; settings: imipenem 4 μg/mL fixed
How it was run: as §1

[16] = test system: Klebsiella pneumoniae XNWB 0003; experiment: as above; settings: imipenem 4 μg/mL fixed
How it was run: as §1

Row | Structure (SMILES) | The minimum concentration of test compounds combined with ceftazidime (8 μg/mL) for bacteriostasis [1] | The minimum concentration of test compounds combined with ceftazidime (8 μg/mL) for bacteriostasis [2] | The minimum concentration of test compounds combined with ceftazidime (8 μg/mL) for bacteriostasis [3] | The minimum concentration of test compounds combined with ceftazidime (8 μg/mL) for bacteriostasis [4] | The minimum concentration of test compounds combined with ceftazidime (8 μg/mL) for bacteriostasis [5] | The minimum concentration of test compounds combined with ceftazidime (8 μg/mL) for bacteriostasis [6] | The minimum concentration of test compounds combined with ceftazidime (8 μg/mL) for bacteriostasis [7] | The minimum concentration of test compounds combined with ceftazidime (8 μg/mL) for bacteriostasis [8] | The minimum concentration of test compounds combined with imipenem (4 μg/mL) for bacteriostasis [9] | The minimum concentration of test compounds combined with imipenem (4 μg/mL) for bacteriostasis [10] | The minimum concentration of test compounds combined with imipenem (4 μg/mL) for bacteriostasis [11] | The minimum concentration of test compounds combined with imipenem (4 μg/mL) for bacteriostasis [12] | The minimum concentration of test compounds combined with imipenem (4 μg/mL) for bacteriostasis [13] | The minimum concentration of test compounds combined with imipenem (4 μg/mL) for bacteriostasis [14] | The minimum concentration of test compounds combined with imipenem (4 μg/mL) for bacteriostasis [15] | The minimum concentration of test compounds combined with imipenem (4 μg/mL) for bacteriostasis [16]
1 | O=C1N2C[C@H](N1OS(=O)(=O)O)C1(CC1)C[C@H]2c1cc(COC2CNC2)on1 [Example 50, (1R,4S)-4-(5-((azetidin-3-yloxy)methyl)isoxazol-3-yl)-6-oxo-5,7-diazaspiro[bicycle [3.2.1]octane-2,1′-cyclopropan]-7-yl sulfate] | A (A: <8 μg/mL) | C (C: 16-128 μg/mL) | B (B: 8-16 μg/mL) | A (A: <8 μg/mL) | A (A: <8 μg/mL) | A (A: <8 μg/mL) | B (B: 8-16 μg/mL) | A (A: <8 μg/mL) | A (A: <8 μg/mL) | C (C: 16-128 μg/mL) | A (A: <8 μg/mL) | A (A: <8 μg/mL) | A (A: <8 μg/mL) | A (A: <8 μg/mL) | A (A: <8 μg/mL) | A (A: <8 μg/mL)
2 | N=C(N)N1CC(NCc2cc([C@@H]3CC4(CC4)[C@@H]4CN3C(=O)N4OS(=O)(=O)O)no2)C1 [Example 51, (1R,4S)-4-(5-(((1-amidinoazetidin-3-yl)amino)methyl)isoxazol-3-yl)-6-oxo-5,7-diazaspiro[bicyclo[3.2.1]octane-2,1′-cyclopropan]-7-yl sulfate] | A (A: <8 μg/mL) | C (C: 16-128 μg/mL) | C (C: 16-128 μg/mL) | A (A: <8 μg/mL) | A (A: <8 μg/mL) | B (B: 8-16 μg/mL) | B (B: 8-16 μg/mL) | B (B: 8-16 μg/mL) | A (A: <8 μg/mL) | C (C: 16-128 μg/mL) | A (A: <8 μg/mL) | A (A: <8 μg/mL) | A (A: <8 μg/mL) | A (A: <8 μg/mL) | A (A: <8 μg/mL) | A (A: <8 μg/mL)
3 | N=C(N)NCCNCCc1cc([C@@H]2CC3(CC3)[C@@H]3CN2C(=O)N3OS(=O)(=O)O)no1 [Example 53, (1R,4S)-4-(5-(2-((2-guanidinoethyl)amino)ethyl)isoxazol-3-yl)-6-oxo-5,7-diazaspiro [bicyclo[3.2.1]octane-2,1′-cyclopropan]-7-yl sulfate] | A (A: <8 μg/mL) | C (C: 16-128 μg/mL) | B (B: 8-16 μg/mL) | A (A: <8 μg/mL) | A (A: <8 μg/mL) | A (A: <8 μg/mL) | B (B: 8-16 μg/mL) | A (A: <8 μg/mL) | A (A: <8 μg/mL) | C (C: 16-128 μg/mL) | A (A: <8 μg/mL) | A (A: <8 μg/mL) | A (A: <8 μg/mL) | A (A: <8 μg/mL) | A (A: <8 μg/mL) | A (A: <8 μg/mL)
4 | O=C1N2C[C@H](N1OS(=O)(=O)O)C1(CC1)C[C@H]2c1ccon1 [Example 54, (1R,4S)-4-(isoxazol-3-yl)-6-oxo-5,7-diazaspiro[bicyclo[3.2.1]octane-2,1′-cyclopropan]-7-yl sulfate] | B (B: 8-16 μg/mL) | C (C: 16-128 μg/mL) | C (C: 16-128 μg/mL) | A (A: <8 μg/mL) | A (A: <8 μg/mL) | C (C: 16-128 μg/mL) | C (C: 16-128 μg/mL) | B (B: 8-16 μg/mL) | A (A: <8 μg/mL) | C (C: 16-128 μg/mL) | A (A: <8 μg/mL) | A (A: <8 μg/mL) | A (A: <8 μg/mL) | A (A: <8 μg/mL) | C (C: 16-128 μg/mL) | A (A: <8 μg/mL)
5 | N=C1NC[C@@H](c2nnc([C@@H]3CC4(CC4)[C@@H]4CN3C(=O)N4OS(=O)(=O)O)o2)N1 [Example 55, (1R,4S)-4-(5-((S)-2-iminoimidazolidin-4-yl)-1,3,4-oxadiazol-2-yl)-6-oxo-5,7-diazaspiro [bicyclo[3.2.1]octane-2,1′-cyclopropan]-7-yl sulfate] | A (A: <8 μg/mL) | C (C: 16-128 μg/mL) | A (A: <8 μg/mL) | A (A: <8 μg/mL) | A (A: <8 μg/mL) | A (A: <8 μg/mL) | B (B: 8-16 μg/mL) | A (A: <8 μg/mL) | A (A: <8 μg/mL) | A (A: <8 μg/mL) | A (A: <8 μg/mL) | A (A: <8 μg/mL) | A (A: <8 μg/mL) | A (A: <8 μg/mL) | A (A: <8 μg/mL) | A (A: <8 μg/mL)
